For 4 compounds, Activity and EC50 results are on record in ChEMBL document CHEMBL1150727, “New cytotoxic aristolactams from Pararistolochia flos-avis” (1987).

Converted amounts (≈) assume the structure as drawn. The source made the active and inactive calls. The calls are words filed in the database; no cut-off is given here.

The subject of assay [1] is P388. Description: Cytotoxicity against mouse P388 cells. The assay is classed as functional.
In assay [2] the test system is KB. The experiment in a line: Cytotoxicity against human KB cells. In kind it is functional.
[3] abbreviates: read-out: ED50 (the source's name).

In the case of `COc1c(O)c(OC)c2c3c(cc4ccccc42)NC(=O)c13`, the result in assay [1] and in assay [2] was inactive.
Regarding `COc1cc2c3c(cc4ccccc4c3c1O)NC2=O`, the result in assay [1] and in assay [2] was inactive.
On to `COc1cccc2c1cc1c3c(cc4c(c32)OCO4)C(=O)N1`, for which the result in assay [1] and in assay [2] was inactive.
`COc1c(O)cc2c3c(cc4ccccc4c13)NC2=O` [ARISTOLACTAM AII]: the EC50 in assay [1] (setting [3]) came out at 3.2 µg/mL (≈ 12.1 µM); in assay [2] (setting [3]), 2.1 µg/mL (≈ 7.92 µM).
